Tests used:
Format in all cases: biochemical
human IP6K1 = target: T1, human IP6K1 (Homo sapiens, UniProt Q92551); assay: IP6K enzyme inhibitory assay (ADP-Glo Kinase Assay), human IP6K1; conditions: compound concentration 0.1 μM; read-out: ADP-Glo method inhibitory rate (%) human IP6K1
T1 construct: human IP6K1 (1-441) gene; GST; made in house; host or cells: Sf-9 insect cells
Method: (§1) IP6K Enzyme Inhibitory Assay
(§2) Human IP6K3 enzyme was prepared by transducing human IP6K3 (1-410) gene into BL21 (DE3) Escherichia coli and purifying by Ni-NTA (nickel-nitrilotriacetic acid) affinity column. […] The enzymes were used after preservation at −70° C. The IP6K enzyme inhibitory activity of the test compound was measured by the following experiment method and using ADP-Glo™ Kinase Assay (manufactured by Promega). A test compound diluted with an assay buffer (20 mM HEPES (pH 7.5), 6 mM MgCl2, 0.01% Tween-20, 1 mM DTT) was first added by 2 μL to a 384 well plate. […] The IP6K enzyme solution diluted with the assay buffer was added by 2 μL to start the enzyme reaction. Incubation was performed at room temperature for a given time (120 min for rat IP6K3 alone, 60 min for others). After incubation at room temperature, ADP-Glo solution prepared according to the protocol of Promega was added by 3 μL to the 384 well plate and reacted at room temperature for 30 min. Thereafter, Kinase-Detection solution was added by 6 μL to the 384 well plate and reacted at room temperature for 60 min. After the reaction, the luminescence intensity was measured by a plate reader Envision (manufactured by PerkinElmer).

human IP6K2 = target: T2, human IP6K2 (Homo sapiens, UniProt Q9UHH9); assay: IP6K enzyme inhibitory assay (ADP-Glo Kinase Assay), human IP6K2; conditions: compound concentration 0.1 μM; read-out: ADP-Glo method inhibitory rate (%) human IP6K2
T2 construct: human IP6K2 (1-426) gene; GST; made in house; host or cells: Sf-9 insect cells
T2 sequence (Q9UHH9 1-426): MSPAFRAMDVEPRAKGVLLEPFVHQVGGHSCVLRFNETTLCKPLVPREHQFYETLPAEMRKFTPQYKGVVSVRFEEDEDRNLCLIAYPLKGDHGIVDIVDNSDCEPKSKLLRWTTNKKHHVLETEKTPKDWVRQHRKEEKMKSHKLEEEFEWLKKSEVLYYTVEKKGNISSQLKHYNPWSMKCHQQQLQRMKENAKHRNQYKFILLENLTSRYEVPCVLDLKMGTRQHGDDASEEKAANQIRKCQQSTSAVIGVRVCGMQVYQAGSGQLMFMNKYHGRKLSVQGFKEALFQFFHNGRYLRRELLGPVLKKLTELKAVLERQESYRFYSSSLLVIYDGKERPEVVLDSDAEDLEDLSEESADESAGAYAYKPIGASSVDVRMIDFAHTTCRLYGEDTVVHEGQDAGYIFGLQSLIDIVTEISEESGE
Method: as §1, §2

human IP6K3 = target: T3, human IP6K3 (Homo sapiens, UniProt Q96PC2); assay: IP6K enzyme inhibitory assay (ADP-Glo Kinase Assay), human IP6K3; conditions: compound concentration 0.1 μM; read-out: ADP-Glo method inhibitory rate (%) human IP6K3
T3 construct: human IP6K3 (1-410) gene; made in house; host or cells: BL21 (DE3) Escherichia coli
T3 sequence (Q96PC2 1-410): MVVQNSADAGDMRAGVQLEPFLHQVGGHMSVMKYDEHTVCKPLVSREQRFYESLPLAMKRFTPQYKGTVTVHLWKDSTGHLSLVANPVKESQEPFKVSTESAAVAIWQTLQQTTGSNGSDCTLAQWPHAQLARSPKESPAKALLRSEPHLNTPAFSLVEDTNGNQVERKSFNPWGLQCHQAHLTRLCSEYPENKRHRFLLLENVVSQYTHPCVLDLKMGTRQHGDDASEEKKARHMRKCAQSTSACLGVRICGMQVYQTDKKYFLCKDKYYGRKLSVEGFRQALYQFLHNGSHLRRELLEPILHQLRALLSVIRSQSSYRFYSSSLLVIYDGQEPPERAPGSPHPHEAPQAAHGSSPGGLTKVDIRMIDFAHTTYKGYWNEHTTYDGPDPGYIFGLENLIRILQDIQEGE
Method: as §1, §2

T1 sequence (Q92551 whole entry): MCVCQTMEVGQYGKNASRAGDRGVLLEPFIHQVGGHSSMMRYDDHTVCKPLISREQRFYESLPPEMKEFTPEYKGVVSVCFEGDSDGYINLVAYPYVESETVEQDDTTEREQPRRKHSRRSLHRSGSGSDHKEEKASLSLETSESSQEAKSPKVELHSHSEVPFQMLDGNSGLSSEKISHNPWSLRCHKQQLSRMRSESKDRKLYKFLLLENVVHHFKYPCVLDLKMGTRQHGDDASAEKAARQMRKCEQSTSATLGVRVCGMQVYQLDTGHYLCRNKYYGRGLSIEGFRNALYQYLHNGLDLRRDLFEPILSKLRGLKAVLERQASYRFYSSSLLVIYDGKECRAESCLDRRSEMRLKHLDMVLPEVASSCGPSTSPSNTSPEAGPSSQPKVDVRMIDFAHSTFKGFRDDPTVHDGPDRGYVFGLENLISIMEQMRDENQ

| inhibition at 0.1 µM (human IP6K1) [%] | inhibition at 0.1 µM (human IP6K2) [%] | inhibition at 0.1 µM (human IP6K3) [%] | Structure (SMILES) |
| --- | --- | --- | --- |
| 66 | 79 | 99 | O=C(O)c1ccc2c(c1)[C@]1(CC[C@@H](Oc3ncc(F)cc3F)CC1)C(=O)N2 [Example 4, (1r,4r)-4-((3,5-difluoropyridin-2-yl)oxy)-2′-oxo-1′,2′-dihydrospiro[cyclohexane-1,3′-indole]-5′-carboxylic acid] |
| 86 | 89 | 94 | O=C(O)c1ccc2c(c1)[C@]1(CC[C@H](Oc3cc(F)cnc3F)CC1)C(=O)N2 [Example 5, (1s,4s)-4-((2,5-difluoropyridin-3-yl)oxy)-2′-oxo-1′,2′-dihydrospiro[cyclohexane-1,3′-indole]-5′-carboxylic acid] |
| 96 | 93 | 97 | O=C(O)c1ccc2c(c1)[C@]1(CC[C@@H](Oc3ccc(C(F)(F)F)nc3)CC1)C(=O)N2 [Example 6, (1r,4r)-2′-oxo-4-((6-(trifluoromethyl)pyridin-3-yl)oxy)-1′,2′-dihydrospiro[cyclohexane-1,3′-indole]-5′-carboxylic acid] |
| 98 | 100 | 102 | O=C(O)c1ccc2c(c1)[C@]1(CC[C@@H](Oc3ccc(C(F)(F)F)cc3)CC1)C(=O)N2 [Example 10, (1r,4r)-2-oxo-4-(4-(trifluoromethyl)phenoxy)-1′,2′-dihydrospiro[cyclohexane-1,3′-indole]-5′-carboxylic acid] |
| 100 | 97 | 100 | O=C(O)c1ccc2c(c1)[C@]1(CC[C@H](Oc3ncc(F)cc3F)CC1)C(=O)N2 [Example 13, (1s,4s)-4-((3,5-difluoropyridin-2-yl)oxy)-2′-oxo-1′,2′-dihydrospiro[cyclohexane-1,3′-indole]-5′-carboxylic acid] |
| 99 | 89 | 98 | O=C(O)c1ccc2c(n1)[C@]1(CC[C@@H](Oc3ncc(C4CC4)cc3Cl)CC1)C(=O)N2 [Example 16, (1r,4r)-4-((3-chloro-5-cyclopropylpyridin-2-yl)oxy)-2′-oxo-1′,2′-dihydrospiro[cyclohexane-1,3′-pyrrolo[3,2-b]pyridine]-5′-carboxylic acid] |
| 92 | 91 | 93 | Cc1cc(Cl)cnc1O[C@H]1CC[C@@]2(CC1)C(=O)Nc1ccc(C(=O)O)nc12 [Example 17, (1r,4r)-4-((5-chloro-3-methylpyridin-2-yl)oxy)-2′-oxo-1′,2′-dihydrospiro[cyclohexane-1,3′-pyrrolo[3,2-b]pyridine]-5′-carboxylic acid] |
| 54 | 62 | 77 | Cc1ccc(C(F)(F)F)c(O[C@H]2CC[C@@]3(CC2)C(=O)Nc2ccc(C(=O)O)nc23)n1 [Example 18, (1r,4r)-4-((6-methyl-3-(trifluoromethyl)pyridin-2-yl)oxy)-2′-oxo-1′,2′-dihydrospiro[cyclohexane-1,3′-pyrrolo[3,2-b]pyridine]-5′-carboxylic acid] |
| 79 | 95 | 98 | Cc1ccc(O[C@H]2CC[C@@]3(CC2)C(=O)Nc2ccc(C(=O)O)cc23)nc1 [Example 20, (1r,4r)-4-((5-methylpyridin-2-yl)oxy)-2′-oxo-1′,2′-dihydrospiro[cyclohexane-1,3′-indole]-5′-carboxylic acid] |
| 79 | 91 | 96 | Cc1cccnc1O[C@H]1CC[C@@]2(CC1)C(=O)Nc1ccc(C(=O)O)cc12 [Example 21, (1r,4r)-4-((3-methylpyridin-2-yl)oxy)-2′-oxo-1′,2′-dihydrospiro[cyclohexane-1,3′-indole]-5′-carboxylic acid] |
| 72 | 72 | 90 | O=C(O)c1ccc2c(c1)[C@]1(CC[C@@H](Oc3ccc(F)cn3)CC1)C(=O)N2 [Example 22, (1r,4r)-4-((5-fluoropyridin-2-yl)oxy)-2′-oxo-1′,2′-dihydrospiro[cyclohexane-1,3′-indole]-5′-carboxylic acid] |

More lines, now with the values behind:

| Structure (SMILES) | inhibition at 0.1 µM (human IP6K1) [%] | inhibition at 0.1 µM (human IP6K2) [%] | inhibition at 0.1 µM (human IP6K3) [%] |
| --- | --- | --- | --- |
| O=C(O)c1ccc2c(c1)[C@]1(CC[C@@H](Oc3ccc(Cl)cc3Cl)CC1)C(=O)N2 [Example 1, (1r,4r)-4-(2,4-dichlorophenoxy)-2′-oxo-1′,2′-dihydrospiro[cyclohexane-1,3′-indole]-5′-carboxylic acid] | 100 | 100 | 99 |
| O=C(O)c1ccc2c(c1)[C@]1(CC[C@@H](Oc3ccc(F)cc3)CC1)C(=O)N2 [Example 2] | 101 | 94 | 100 |
| O=C(O)c1ccc2c(c1)[C@]1(CC[C@@H](Oc3c(Cl)cc(Cl)cc3Cl)CC1)C(=O)N2 [Example 3, (1r,4r)-2′-oxo-4-(2,4,6-trichlorophenoxy)-1′,2′-dihydrospiro[cyclohexane-1,3′-indole]-5′-carboxylic acid] | 101 | 101 | 85 |
| N#Cc1cc(Cl)ccc1O[C@H]1CC[C@@]2(CC1)C(=O)Nc1ccc(C(=O)O)cc12 [Example 7, (1r,4r)-4-(4-chloro-2-cyanophenoxy)-2′-oxo-1′,2′-dihydrospiro[cyclohexane-1,3′-indole]-5′-carboxylic acid] | 100 | 101 | 86 |
| NC(=O)c1cc(Cl)ccc1O[C@H]1CC[C@@]2(CC1)C(=O)Nc1ccc(C(=O)O)cc12 [Example 8, (1r,4r)-4-(2-carbamoyl-4-chlorophenoxy)-2′-oxo-1′,2′-dihydrospiro[cyclohexane-1,3′-indole]-5′-carboxylic acid] | 100 | 97 | 95 |
| O=C(O)c1ccc2c(c1)[C@]1(CC[C@@H](Oc3ccc(Cl)cn3)CC1)C(=O)N2 [Example 11, (1r,4r)-4-((5-chloropyridin-2-yl)oxy)-2′-oxo-1′,2′-dihydrospiro[cyclohexane-1,3′-indole]-5′-carboxylic acid] | 100 | 97 | 102 |
| O=C(O)c1ccc2c(c1)[C@]1(CC[C@@H](Oc3ccccc3Cl)CC1)C(=O)N2 [Example 12, (1r,4r)-4-(2-chlorophenoxy)-2′-oxo-1′,2′-dihydrospiro[cyclohexane-1,3′-indole]-5′-carboxylic acid] | 95 | 97 | 101 |
| O=C(O)c1ccc2c(c1)[C@]1(CC[C@H](Oc3ccc(Cl)cc3Cl)CC1)C(=O)N2 [Example 15, (1s,4s)-4-(2,4-dichlorophenoxy)-2′-oxo-1′,2′-dihydrospiro[cyclohexane-1,3′-indole]-5′-carboxylic acid] | 99 | 101 | 91 |
| O=C(O)c1ccc2c(c1)[C@]1(CC[C@@H](Oc3ccccn3)CC1)C(=O)N2 [Example 19, (1r,4r)-2′-oxo-4-[pyridin-2-yloxy)-1′,2′-dihydrospiro[cyclohexane-1,3′-indole]-5′-carboxylic acid] | 40 | 45 | 70 |
| O=C(O)c1ccc2c(c1)[C@]1(CC[C@@H](Oc3cc(Cl)ccn3)CC1)C(=O)N2 [Example 23, (1r,4r)-4-((4-chloropyridin-2-yl)oxy)-2′-oxo-1′,2′-dihydrospiro[cyclohexane-1,3′-indole]-5′-carboxylic acid] | 72 | 79 | 92 |

— US10968178B2, “IP6K inhibitors” (TAKEDA PHARMACEUTICAL COMPANY LIMITED, priority 2017, dated 2021)
